The results in this text go back to ChEMBL document CHEMBL3045401, “(Naphthalen-1-yloxy)-acetic acid benzylidene/(1-phenyl-ethylidene)-hydrazide derivatives: synthesis, antimicrobial evaluation, and QSAR studies” (Med Chem Res, 2012).

The structures appear in SMILES notation. Values after ≈ are worked out from the molar mass of the structure shown.

Series [1] is described as follows: Octanol-water partition coefficient, log P of the compound. Type of series: physicochemical.
Another series concerns Aspergillus niger. Description: Antimicrobial activity against Aspergillus niger after 7 days by serial dilution method. Type of series: functional.
For a further series, the system named is Candida albicans. The experiment in a line: Antimicrobial activity against Candida albicans after 2 days by serial dilution method. Type of series: functional.
For the next series, the system named is Escherichia coli. Description: Antimicrobial activity against Escherichia coli after 24 hr by serial dilution method. Type of series: functional.
For a further series, the system named is Staphylococcus aureus. Description: Antimicrobial activity against Staphylococcus aureus after 24 hr by serial dilution method. Type of series: functional.
For a further series, the system named is Bacillus subtilis. Description: Antimicrobial activity against Bacillus subtilis after 24 hr by serial dilution method. Type of series: functional.
The nature of series [2]: Cytotoxicity against HEL assessed as minimum concentration required to cause morphological changes. Type of series: cell-based. The conditions noted are these: human, HEL cells.
In series [3] the test system is Human betaherpesvirus 5. Description: Antiviral activity against Human herpesvirus 5 Davis infected human HEL cells assessed as reduction in the virus plaque formation. Type of series: functional, organism-based. To be noted: Human betaherpesvirus 5, Davis.
Series [4] relates to Human betaherpesvirus 5. The experiment in a line: Antiviral activity against Human herpesvirus 5 strain AD169 infected human HEL cells assessed as reduction in the virus plaque formation. To be noted: Human betaherpesvirus 5, AD169, HEL. Type of series: functional, organism-based.
Series [5] in a line: Cytotoxicity against HEL. Type of series: cell-based. The conditions noted are these: human, HEL cells.
Series [6] deals with Human alphaherpesvirus 3. Description: Antiviral activity against thymidine kinase-deficient Human herpesvirus 3 infected in HEL cells assessed as inhibition of viral plaque formation. To be noted: Human alphaherpesvirus 3, HEL. Type of series: functional, organism-based.
Series [7] has as its system Human alphaherpesvirus 3. Description: Antiviral activity against thymidine kinase-positive Human herpesvirus 3 infected in HEL cells assessed as inhibition of viral plaque formation. Type of series: functional, organism-based. To be noted: Human alphaherpesvirus 3, HEL.
Series [8] in a line: Cytotoxicity against Homo sapiens (human) MT4 cells after 4 days by MTT assay. Type of series: cell-based.
The test system of series [9] is Human immunodeficiency virus 2. Description: Antiviral activity against Human immunodeficiency virus type 2 (ISOLATE ROD) infected human MT4 cells assessed as inhibition of virus-induced cytopathic effect after 4 days by MTT assay. The conditions noted are these: Human immunodeficiency virus 2, ISOLATE ROD, MT4, 96 h. Type of series: functional, organism-based. For orientation: Damage to the host cells serves as the signal in cytopathic effect assays.

In series [10] the test system is Human immunodeficiency virus 1. Description: Antiviral activity against Human immunodeficiency virus 1 IIIB infected human MT4 cells assessed as inhibition of virus-induced cytopathic effect after 4 days by MTT assay. Type of series: functional, organism-based. The conditions noted are these: MT4, 96 h.

As a reminder, the logP is the decadic logarithm of the partition coefficient of the neutral form, usually between octanol and water. In general, EC50 refers to the concentration needed to bring the measured effect to its halfway point. One may read the CC50 as the concentration that lowers cell viability or growth by half. For `COc1ccc(/C=N/NC(=O)COc2cccc3ccccc23)cc1OC`, in [1], the logP worked out at 3.51. Further, the “-logMIC” value came out at 1.46 with Aspergillus niger; 1.46 in the series with Candida albicans; 1.46 with Escherichia coli; 1.46 in the series with Staphylococcus aureus; 1.16 in the series on Bacillus subtilis. The MCC in series [2] is not below 20 µg/mL. For the same compound, the EC50 in the series with Human betaherpesvirus 5 [3] is more than 20 µg/mL; in the series on Human betaherpesvirus 5 [4], more than 4 µg/mL; in the series on Human alphaherpesvirus 3 [6], more than 20 µg/mL; in the series with Human alphaherpesvirus 3 [7], more than 4 µg/mL; in series [9], more than 14.6 µg/mL; in series [10], more than 14.6 µg/mL. Moreover, the CC50 in series [5] worked out at 52.6 µg/mL (≈ 144 µM). It took 14.7 µg/mL (≈ 40.2 µM) to reach half-maximal cytotoxicity in series [8] (CC50 at 96 h).
In series [1], `C/C(=N\NC(=O)COc1cccc2ccccc12)c1ccccc1Br` gave a logP of 4.44. The “-logMIC” value is listed as 1.5 with Aspergillus niger; 1.5 with Candida albicans; 1.2 in the series on Escherichia coli; 1.2 in the series with Staphylococcus aureus; 1.2 with Bacillus subtilis. The MCC in series [2] was determined as 20 µg/mL. In addition, the EC50 with Human betaherpesvirus 5 [3] was more than 4 µg/mL; in the series on Human betaherpesvirus 5 [4], more than 4 µg/mL; in the series on Human alphaherpesvirus 3 [6], more than 4 µg/mL; with Human alphaherpesvirus 3 [7], more than 4 µg/mL; in series [9], more than 79.8 µg/mL; in series [10], more than 79.8 µg/mL. For the same compound, the CC50 in series [5] came to 16.2 µg/mL (≈ 40.8 µM). The cytotoxic concentration (CC50) at 96 h in [8] worked out at 79.8 µg/mL (≈ 201 µM).
Consider `CCOc1ccc(/C=N/NC(=O)COc2cccc3ccccc23)cc1O`, for which, in series [1], the lipophilicity (logP) was 3.82. In addition, the “-logMIC” value in the series on Aspergillus niger stood at 1.46; in the series on Candida albicans, 1.46; in the series with Escherichia coli, 1.46; in the series on Staphylococcus aureus, 1.16; in the series with Bacillus subtilis, 1.46. Further, the MCC in series [2] worked out at 100 µg/mL. Moreover, the EC50 in the series on Human betaherpesvirus 5 [3] is more than 20 µg/mL; with Human betaherpesvirus 5 [4], more than 20 µg/mL; with Human alphaherpesvirus 3 [6], more than 4 µg/mL; in the series on Human alphaherpesvirus 3 [7], more than 4 µg/mL; in series [9], more than 6.23 µg/mL; in series [10] it was more than 6.23 µg/mL. The compound further returned a CC50 in [5] of 18.1 µg/mL (≈ 49.7 µM). Further, in series [8], it took 6.23 µg/mL (≈ 17.1 µM) to reach half-maximal cytotoxicity (CC50 at 96 h).
`COc1ccc(/C=N/NC(=O)COc2cccc3ccccc23)cc1` came in with a logP in [1] of 3.77. The “-logMIC” value with Aspergillus niger, in the series on Candida albicans, in the series with Escherichia coli, with Staphylococcus aureus and with Bacillus subtilis was 0.82 each time. Moreover, the MCC in series [2] is 20 µg/mL. Besides, the EC50 in the series with Human betaherpesvirus 5 [3] was more than 4 µg/mL; in the series with Human betaherpesvirus 5 [4], more than 4 µg/mL; with Human alphaherpesvirus 3 [6], more than 4 µg/mL; with Human alphaherpesvirus 3 [7], more than 4 µg/mL; in series [9], more than 76.9 µg/mL; in series [10], more than 76.9 µg/mL. In series [5], this compound displayed a CC50 of 100 µg/mL (≈ 299 µM). Further, the midpoint of cytotoxicity in [8], the CC50 at 96 h, lay at 76.9 µg/mL (≈ 230 µM).
Compound `COc1ccc(/C=N/NC(=O)COc2cccc3ccccc23)cc1O` came in with a logP in series [1] of 3.48. Moreover, the “-logMIC” value in the series with Aspergillus niger turned out to be 1.15; with Candida albicans, 1.15; in the series with Escherichia coli, 1.45; in the series with Staphylococcus aureus, 1.15; in the series with Bacillus subtilis, 1.45. In addition, in series [2], the MCC turned out to be 100 µg/mL. In addition, the EC50 is more than 20 µg/mL with Human betaherpesvirus 5 [3]; more than 20 µg/mL in the series with Human betaherpesvirus 5 [4]; 20 µg/mL (≈ 57.1 µM) in the series with Human alphaherpesvirus 3 [6]; 13.8 µg/mL (≈ 39.4 µM) in the series on Human alphaherpesvirus 3 [7]; more than 7.05 µg/mL in series [9]; more than 7.05 µg/mL in series [10]. Besides, the CC50 in series [5] came to 27.7 µg/mL (≈ 79.1 µM). Also, the CC50 at 96 h in series [8] worked out at 7.05 µg/mL (≈ 20.1 µM).
In series [1], `O=C(COc1cccc2ccccc12)N/N=C/c1ccc(F)cc1` registered a logP of 4.16. For the same compound, the “-logMIC” value turned out to be 0.81 in the series with Aspergillus niger; 0.81 in the series on Candida albicans; 1.41 in the series with Escherichia coli; 1.41 in the series with Staphylococcus aureus; 1.11 with Bacillus subtilis. Moreover, the MCC in [2] came to 100 µg/mL. In addition, the concentration giving a half-maximal response (EC50) with Human betaherpesvirus 5 [3] was more than 20 µg/mL; with Human betaherpesvirus 5 [4] it was more than 20 µg/mL; in the series with Human alphaherpesvirus 3 [6], more than 20 µg/mL; in the series with Human alphaherpesvirus 3 [7], more than 20 µg/mL; in series [9], more than 65 µg/mL; in series [10], more than 65 µg/mL. In addition, half-maximal cytotoxicity in series [5] (CC50) was put at 71.6 µg/mL (≈ 222 µM). For the same compound, the CC50 at 96 h in series [8] is 65 µg/mL (≈ 202 µM).
`O=C(COc1cccc2ccccc12)N/N=C/c1c[nH]c2ccccc12`: in series [1], the logP is 3.79. Moreover, the “-logMIC” value in the series with Aspergillus niger is reported as 0.84; with Candida albicans, 0.84; in the series with Escherichia coli it was 0.84; in the series on Staphylococcus aureus, 0.84; in the series with Bacillus subtilis it was 1.14. For the same compound, the MCC in series [2] amounted to 100 µg/mL. Besides, the EC50 in the series with Human betaherpesvirus 5 [3] was more than 20 µg/mL; in the series with Human betaherpesvirus 5 [4] it was more than 20 µg/mL; in the series on Human alphaherpesvirus 3 [6], more than 20 µg/mL; with Human alphaherpesvirus 3 [7], more than 20 µg/mL; in series [9], more than 51.5 µg/mL; in series [10], more than 51.5 µg/mL. In [5], this compound gave a CC50 of more than 100 µg/mL. In series [8], this compound returned a CC50 at 96 h of 51.5 µg/mL (≈ 150 µM).
As for `O=C(COc1cccc2ccccc12)N/N=C/c1ccccc1Cl`, in series [1], the logP was found to be 4.54. Moreover, the “-logMIC” value in the series with Aspergillus niger is listed as 0.83; with Candida albicans, 0.83; in the series with Escherichia coli, 0.83; in the series with Staphylococcus aureus, 1.13; in the series with Bacillus subtilis, 0.83. The MCC in [2] was 100 µg/mL. The EC50 in the series with Human betaherpesvirus 5 [3] is more than 20 µg/mL; in the series on Human betaherpesvirus 5 [4], more than 20 µg/mL; with Human alphaherpesvirus 3 [6] it was more than 20 µg/mL; in the series with Human alphaherpesvirus 3 [7] it was more than 20 µg/mL; in series [9], more than 56.2 µg/mL; in [10], more than 56.2 µg/mL. Also, the CC50 in [5] was 62.7 µg/mL (≈ 185 µM). Half-maximal cytotoxicity in [8] (CC50 at 96 h) was put at 56.2 µg/mL (≈ 166 µM).
In [1], `COc1ccc(OC)c(/C=N/NC(=O)COc2cccc3ccccc23)c1` returned a logP of 3.51. For the same compound, the “-logMIC” value with Aspergillus niger was 1.46; with Candida albicans, 1.46; with Escherichia coli it was 1.46; in the series on Staphylococcus aureus, 1.16; with Bacillus subtilis, 1.16. In addition, the MCC in [2] was not below 20 µg/mL. Also, the concentration for a half-maximal effect (EC50) in the series with Human betaherpesvirus 5 [3] was more than 20 µg/mL; in the series on Human betaherpesvirus 5 [4], more than 4 µg/mL; in the series with Human alphaherpesvirus 3 [6], more than 20 µg/mL; in the series with Human alphaherpesvirus 3 [7], more than 4 µg/mL; in series [9] it was more than 19.2 µg/mL; in series [10] it was more than 19.2 µg/mL. In [5], this compound yielded a CC50 of 56.9 µg/mL (≈ 156 µM). The compound further displayed a CC50 at 96 h in series [8] of 19.2 µg/mL (≈ 52.8 µM).
On to `C/C(=N\NC(=O)COc1cccc2ccccc12)c1cccc([N+](=O)[O-])c1`, for which the logP in [1] stood at 3.37. For the same compound, the “-logMIC” value was determined as 1.46 with Aspergillus niger; 1.76 in the series on Candida albicans; 1.46 with Escherichia coli; 1.76 in the series with Staphylococcus aureus; 1.16 in the series with Bacillus subtilis. In addition, in series [2], the MCC came to 20 µg/mL. For the same compound, the EC50 with Human betaherpesvirus 5 [3] is more than 4 µg/mL; in the series on Human betaherpesvirus 5 [4], more than 4 µg/mL; in the series on Human alphaherpesvirus 3 [6], more than 4 µg/mL; with Human alphaherpesvirus 3 [7], more than 4 µg/mL; in series [9], more than 12.1 µg/mL; in series [10] it was more than 12.1 µg/mL. For the same compound, the CC50 in [5] worked out at 10.5 µg/mL (≈ 28.9 µM). In addition, in [8], the midpoint of cytotoxicity, the CC50 at 96 h, lay at 12.1 µg/mL (≈ 33.2 µM).
As to `O=C(COc1cccc2ccccc12)N/N=C/c1c(O)ccc2ccccc12`, the logP in [1] was found to be 4.74. In addition, the “-logMIC” value is listed as 0.87 in the series on Aspergillus niger; 0.87 in the series with Candida albicans; 0.87 in the series on Escherichia coli; 0.87 in the series with Staphylococcus aureus; 0.57 with Bacillus subtilis. Also, in [2], the MCC came to 4 µg/mL. Besides, the EC50 is more than 0.8 µg/mL with Human betaherpesvirus 5 [3]; more than 0.8 µg/mL in the series with Human betaherpesvirus 5 [4]; more than 0.8 µg/mL in the series with Human alphaherpesvirus 3 [6]; more than 0.8 µg/mL with Human alphaherpesvirus 3 [7]; more than 2.12 µg/mL in [9]; more than 2.12 µg/mL in series [10]. Further, it took 1.94 µg/mL (≈ 5.24 µM) to reach half-maximal cytotoxicity in series [5] (CC50). This compound also returned a CC50 at 96 h in [8] of 2.12 µg/mL (≈ 5.72 µM).
